Earlier results on 1 compound are cited in PMC10667676, “Pharmacokinetics and bioequivalence of sunitinib and Sutent® in Chinese healthy subjects: an open-label, randomized, crossover study” (Frontiers in Pharmacology, 2023).

The Tmax is the time at which the peak concentration occurs.

Each structure is given as a SMILES string.

On the set-up of series [1]: method as in Bello and e t al., 2006. To be noted: healthy subjects, high-fat, high-calorie diet, oral 50 mg; ref Bello and e t al., 2006.
For a further series, the system named is CYP enzymes. To be noted: ref Zhou and Gallo, 2010; Kassem et al., 2012a.

Consider `CCN(CC)CCNC(=O)c1c(C)[nH]c(/C=C2\C(=O)Nc3ccc(F)cc32)c1C` [Sunitinib], for which, in series [1], the “AUC0-∞” value was 1489 (1276–1736) ng*h/mL, the “AUC0–t” value is reported as 1476 (1264–1724) ng*h/mL, the Cmax is recorded as 25.1 (21.1–29.7) ng/mL and the time of peak concentration (Tmax) is on record as 8.03 h. Moreover, in series [1], the t1/2 is 59.1 h. The Elimination half-life (healthy subjects' plasma, no reference given) is 40 to 60 h. Moreover, the “Elimination through the feces, share of total administered dose” value (primary route of elimination, ref Adams and Leggas, 2007) is given as 61%. In addition, the “Renal excretion, share of total administered dose” value (ref Adams and Leggas, 2007) is recorded as 16%. Moreover, for the setting “ref Bello and e t al., 2006”, the “Effect of food consumption on bioavailability” value is reported as “unaltered”. Moreover, the “Inhibition or induction of CYP enzymes” value in the series on CYP enzymes was “unlikely to significantly inhibit or induce”.
